Source: patent US11180504B2 (ORCHID PHARMA LTD., priority 2016, dated 2021)
In brackets after ≈: the same amount, converted by molar mass.

How the values were obtained:
[1] = tested on: methicillin-sensitive Staphylococcus aureus; assay: MIC by broth micro-dilution (CLSI), methicillin-sensitive S. aureus; type: cell-based; conditions: Staphylococcus aureus, ATCC 29213 / MSSA, MSSA S. aureus ATCC29213; read-out: MIC
[2] = tested on: carbapenem sensitive Escherichia coli; assay: MIC by broth micro-dilution (CLSI), carbapenem sensitive E. coli; type: cell-based; conditions: Escherichia coli, ATCC25922, ESBL −ve E. coli ATCC25922; read-out: MIC
[3] = tested on: extended spectrum β lactamase (ESBL) SHV18 producing Klebsiella pneumoniae; assay: MIC by broth micro-dilution (CLSI), ESBL SHV18 producing K. pneumoniae; type: cell-based; conditions: Klebsiella pneumoniae, ATCC700603, 22 h, ESBL +ve (SHV-18) K. pneumoniae ATCC700603; read-out: MIC
[4] = tested on: carbapenemase producing K. pneumoniae; assay: MIC by broth micro-dilution (CLSI), carbapenemase producing K. pneumoniae; type: cell-based, Klebsiella pneumoniae; conditions: Klebsiella pneumoniae, ATCCBAA1705, KPC-2 K. pneumoniae ATCC BAA-1705; read-out: MIC
[5] = tested on: carbapenem sensitive Pseudomonas aeruginosa; assay: MIC by broth micro-dilution (CLSI), carbapenem sensitive P. aeruginosa; type: cell-based; conditions: Pseudomonas aeruginosa, ATCC27853, Meropenem susceptible P. aeruginosa ATCC27853; read-out: MIC

Row | SMILES | MIC [1] [µg/mL] | MIC [2] [µg/mL] | MIC [3] [µg/mL] | MIC [4] [µg/mL] | MIC [5] [µg/mL]
1 | CC(C)C[C@H](N)C(=O)N[C@H](C)[C@H]1C(=O)N2C(C(=O)O)=C(S[C@@H]3CN[C@H](C(=O)N(C)C)C3)[C@H](C)[C@H]12 [Example 31] | 16 (≈ 32.3 µM) | 4 (≈ 8.07 µM) | 16 (≈ 32.3 µM) | 4 (≈ 8.07 µM) | > 128
2 | C[C@@H](NS(=O)(=O)c1cccs1)[C@H]1C(=O)N2C(C(=O)O)=C(S[C@@H]3CN[C@H](C(=O)N(C)C)C3)[C@H](C)[C@@H]12 [Example 33] | 4 (≈ 7.57 µM) | 4 (≈ 7.57 µM) | 32 (≈ 60.5 µM) | 16 (≈ 30.3 µM) | > 128
3 | COC(=S)N[C@H](C)[C@H]1C(=O)N2C(C(=O)O)=C(S[C@@H]3CN[C@H](C(=O)N(C)C)C3)[C@H](C)[C@H]12 [Example 36] | 1 (≈ 2.19 µM) | 2 (≈ 4.38 µM) | 16 (≈ 35 µM) | 16 (≈ 35 µM) | 128 (≈ 280 µM)
4 | C[C@@H](NC(=O)CC(F)(F)F)[C@H]1C(=O)N2C(C(=O)O)=C(S[C@@H]3CN[C@H](C(=O)N(C)C)C3)[C@H](C)[C@H]12 [Example 40] | 4 (≈ 8.12 µM) | 1 (≈ 2.03 µM) | 8 (≈ 16.2 µM) | 4 to 8 (≈ 8.12 to 16.2 µM) | > 128
5 | C[C@@H](NC(=O)CN)[C@H]1C(=O)N2C(C(=O)O)=C(S[C@@H]3CN[C@H](C(=O)N(C)C)C3)[C@H](C)[C@H]12 [Example 44] | 32 (≈ 72.8 µM) | 4 (≈ 9.1 µM) | 4 (≈ 9.1 µM) | 8 (≈ 18.2 µM) | 16 (≈ 36.4 µM)
6 | C[C@@H](NC(=O)OCC(F)(F)F)[C@H]1C(=O)N2C(C(=O)O)=C(S[C@@H]3CN[C@H](C(=O)N(C)C)C3)[C@H](C)[C@H]12 [Example 47] | 2 (≈ 3.93 µM) | 2 (≈ 3.93 µM) | 128 (≈ 252 µM) | 64 (≈ 126 µM) | > 128
7 | C[C@@H](NC=N)[C@H]1C(=O)N2C(C(=O)O)=C(S[C@@H]3CN[C@H](C(=O)N(C)C)C3)[C@H](C)[C@H]12 [Example 48] | 16 (≈ 39.1 µM) | 0.5 (≈ 1.22 µM) | 1 (≈ 2.44 µM) | 64 (≈ 156 µM) | 8 (≈ 19.5 µM)
8 | C[C@H](NS(C)(=O)=O)C(=O)N[C@H](C)[C@H]1C(=O)N2C(C(=O)O)=C(S[C@@H]3CN[C@H](C(=O)N(C)C)C3)[C@H](C)[C@H]12 [Example 51] | 8 (≈ 15 µM) | 4 (≈ 7.52 µM) | 32 (≈ 60.2 µM) | 32 (≈ 60.2 µM) | > 128
9 | C[C@@H](NC(=O)OCC(F)(F)F)[C@H]1C(=O)N2C(C(=O)O)=C(S[C@@H]3CN[C@H](CNS(N)(=O)=O)C3)[C@H](C)[C@H]12 [Example 52] | 1 (≈ 1.83 µM) | 8 (≈ 14.7 µM) | 128 (≈ 235 µM) | > 128 | > 128
10 | CO/N=C(\C)C(=O)N[C@H](C)[C@H]1C(=O)N2C(C(=O)O)=C(S[C@@H]3CN[C@H](C(=O)N(C)C)C3)[C@H](C)[C@H]12 [Example 54] | 1 (≈ 2.08 µM) | 8 (≈ 16.6 µM) | > 128 | > 128 | > 128
11 | C[C@@H](NC(=O)[C@H](N)CO)[C@H]1C(=O)N2C(C(=O)O)=C(S[C@@H]3CN[C@H](C(=O)N(C)C)C3)[C@H](C)[C@H]12 [Example 56] | 64 (≈ 136 µM) | 8 (≈ 17 µM) | 16 (≈ 34.1 µM) | 16 (≈ 34.1 µM) | 64 (≈ 136 µM)
12 | C[C@@H](NS(=O)(=O)N(C)C)[C@H]1C(=O)N2C(C(=O)O)=C(S[C@@H]3CN[C@H](C(=O)N(C)C)C3)[C@H](C)[C@H]12 [Example 57] | 32 (≈ 65.4 µM) | 4 (≈ 8.17 µM) | 16 (≈ 32.7 µM) | 128 (≈ 261 µM) | > 128
13 | C[C@@H](NC(=O)[C@H]1CCCO1)[C@H]1C(=O)N2C(C(=O)O)=C(S[C@@H]3CN[C@H](C(=O)N(C)C)C3)[C@H](C)[C@H]12 [Example 58] | 32 (≈ 66.6 µM) | 16 (≈ 33.3 µM) | > 128 | > 128 | > 128

The next lines start with the values.

Row | MIC [1] [µg/mL] | MIC [2] [µg/mL] | MIC [3] [µg/mL] | MIC [4] [µg/mL] | MIC [5] [µg/mL] | SMILES
14 | 1 (≈ 2.17 µM) | 0.5 (≈ 1.09 µM) | 1 (≈ 2.17 µM) | 1 (≈ 2.17 µM) | 32 (≈ 69.5 µM) | C[C@@H](NC(=O)C(F)F)[C@H]1C(=O)N2C(C(=O)O)=C(S[C@@H]3CN[C@H](C(=O)N(C)C)C3)[C@H](C)[C@H]12 [Example 32]
15 | 4 (≈ 7.19 µM) | 1 (≈ 1.8 µM) | 8 (≈ 14.4 µM) | 8 (≈ 14.4 µM) | 128 (≈ 230 µM) | C[C@@H](NS(=O)(=O)C(F)(F)F)[C@H]1C(=O)N2C(C(=O)O)=C(S[C@@H]3CN[C@H](C(=O)N4CC[C@@H](O)C4)C3)[C@H](C)[C@H]12 [Example 34]
16 | 1 (≈ 1.93 µM) | 1 (≈ 1.93 µM) | 4 (≈ 7.71 µM) | 2 to 4 (≈ 3.86 to 7.71 µM) | > 128 | C[C@@H](NC(=O)C(F)F)[C@H]1C(=O)N2C(C(=O)O)=C(S[C@@H]3CN[C@H](C(=O)N4CCSCC4)C3)[C@H](C)[C@H]12 [Example 35]
17 | 16 (≈ 29.4 µM) | 1 (≈ 1.84 µM) | 1 (≈ 1.84 µM) | 16 (≈ 29.4 µM) | > 128 | C[C@@H](NC(=O)C(F)F)[C@H]1C(=O)N2C(C(=O)O)=C(S[C@@H]3CN[C@H](C(=O)N4CCC(C(=O)O)CC4)C3)[C@H](C)[C@H]12 [Example 37]
18 | 0.25 (≈ 0.502 µM) | 1 (≈ 2.01 µM) | 1 (≈ 2.01 µM) | 2 to 4 (≈ 4.02 to 8.04 µM) | 32 to 64 (≈ 64.3 to 129 µM) | C[C@@H](NC(=O)C(F)F)[C@H]1C(=O)N2C(C(=O)O)=C(S[C@@H]3CN[C@H](CNS(N)(=O)=O)C3)[C@H](C)[C@H]12 [Example 38]
19 | 16 | 4 | 16 | 16 | 16 | C[C@@H](NS(C)(=O)=O)[C@H]1C(=O)N2C(C(=O)O)=C(S[C@@H]3CN[C@H](C(=O)N4CC[N+](C)(CC(N)=O)CC4)C3)[C@H](C)[C@H]12 [Example 39]
20 | 2 (≈ 4.08 µM) | 1 (≈ 2.04 µM) | 16 (≈ 32.6 µM) | 16 (≈ 32.6 µM) | > 128 | C[C@@H](NC(=O)OCC(F)F)[C@H]1C(=O)N2C(C(=O)O)=C(S[C@@H]3CN[C@H](C(=O)N(C)C)C3)[C@H](C)[C@H]12 [Example 41]
21 | 2 (≈ 3.74 µM) | 1 (≈ 1.87 µM) | 1 (≈ 1.87 µM) | 8 (≈ 15 µM) | 128 (≈ 239 µM) | C[C@@H](NC(=O)C(F)F)[C@H]1C(=O)N2C(C(=O)O)=C(S[C@@H]3CN[C@H](C(=O)N4CC[S+]([O-])CC4)C3)[C@H](C)[C@H]12 [Example 42]
22 | 2 (≈ 3.88 µM) | 1 (≈ 1.94 µM) | 4 (≈ 7.76 µM) | 8 (≈ 15.5 µM) | 64 (≈ 124 µM) | C[C@@H](NC(=O)C(F)F)[C@H]1C(=O)N2C(C(=O)O)=C(S[C@@H]3CN[C@H](C(=O)N4CCN(C)CC4)C3)[C@H](C)[C@H]12 [Example 43]
23 | 1 | 1 | 4 | 16 | 4 | C[C@@H](NC(=O)C(F)F)[C@H]1C(=O)N2C(C(=O)O)=C(S[C@@H]3CN[C@H](C(=O)N4CC[N+](C)(C)CC4)C3)[C@H](C)[C@H]12 [Example 45]
24 | 1 | 1 | 4 | 8 | 16 | C[C@@H](NC(=O)C(F)F)[C@H]1C(=O)N2C(C(=O)O)=C(S[C@@H]3CN[C@H](C(=O)N4CC[N+](C)(CC(N)=O)CC4)C3)[C@H](C)[C@H]12 [Example 46]
25 | 2 (≈ 3.63 µM) | 1 (≈ 1.82 µM) | 2 (≈ 3.63 µM) | > 128 | > 128 | C[C@@H](NC(=O)C(F)F)[C@H]1C(=O)N2C(C(=O)O)=C(S[C@@H]3CN[C@H](C(=O)N4CCS(=O)(=O)CC4)C3)[C@H](C)[C@H]12 [Example 49]
